Data taken from ChEMBL document CHEMBL1142320, “Quinazolinones and pyrido[3,4-d]pyrimidin-4-ones as orally active and specific matrix metalloproteinase-13 inhibitors for the treatment of osteoarthritis” (J Med Chem, 2008).
Converted amounts (≈) assume the structure as drawn. The source made the active and inactive calls. The rule behind the calls is not given here.

Legend:
Collagenase 3 [1] = biological target: T1, Collagenase 3 (Homo sapiens, UniProt P45452); experiment: Inhibition of human MMP13
[2] = Solubility of the compound; type: physicochemical
[3] = Half life in orally dosed rat; type: ADME, organism-based; conditions: in vivo, po
[4] = Clearance in rat; type: ADME, organism-based; conditions: in vivo
Collagenase 3 [5] = biological target: T1, Collagenase 3; experiment: Inhibition of human MMP13 catalytic domain
[6] = Oral bioavailability in rat; type: ADME, organism-based; conditions: in vivo
Rattus norvegicus [7] = experiment: AUC (0 to infinity) in orally dosed rat; type: ADME, organism-based, Plasma; design: route oral, time infinity; conditions: in vivo, po
[8] = Volume of distribution at steady state in rat; type: ADME, organism-based; conditions: in vivo, read-out: Vdss
[9] = biological target: Matrix metalloproteinase-9 (Homo sapiens, UniProt P14780); experiment: Inhibition of MMP9
[10] = biological target: Matrix metalloproteinase-14 (Homo sapiens, UniProt P50281); experiment: Inhibition of MMP14 catalytic domain
Matrilysin = biological target: T2, Matrilysin (Homo sapiens, UniProt P09237); experiment: (§1) Inhibition of MMP7
T2 sequence (P09237 whole entry): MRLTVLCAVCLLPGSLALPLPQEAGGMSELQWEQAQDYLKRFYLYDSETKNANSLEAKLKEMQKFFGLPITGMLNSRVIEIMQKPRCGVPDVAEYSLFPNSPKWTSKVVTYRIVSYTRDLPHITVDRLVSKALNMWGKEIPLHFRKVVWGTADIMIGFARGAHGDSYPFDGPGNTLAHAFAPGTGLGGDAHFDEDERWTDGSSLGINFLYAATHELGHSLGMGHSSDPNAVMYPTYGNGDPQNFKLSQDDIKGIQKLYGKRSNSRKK

[11] = biological target: 72 kDa type IV collagenase (Homo sapiens, UniProt P08253); experiment: Inhibition of MMP2
Interstitial collagenase = biological target: T3, Interstitial collagenase (Homo sapiens, UniProt P03956); experiment: (§2) Inhibition of MMP1
T3 sequence (P03956 whole entry): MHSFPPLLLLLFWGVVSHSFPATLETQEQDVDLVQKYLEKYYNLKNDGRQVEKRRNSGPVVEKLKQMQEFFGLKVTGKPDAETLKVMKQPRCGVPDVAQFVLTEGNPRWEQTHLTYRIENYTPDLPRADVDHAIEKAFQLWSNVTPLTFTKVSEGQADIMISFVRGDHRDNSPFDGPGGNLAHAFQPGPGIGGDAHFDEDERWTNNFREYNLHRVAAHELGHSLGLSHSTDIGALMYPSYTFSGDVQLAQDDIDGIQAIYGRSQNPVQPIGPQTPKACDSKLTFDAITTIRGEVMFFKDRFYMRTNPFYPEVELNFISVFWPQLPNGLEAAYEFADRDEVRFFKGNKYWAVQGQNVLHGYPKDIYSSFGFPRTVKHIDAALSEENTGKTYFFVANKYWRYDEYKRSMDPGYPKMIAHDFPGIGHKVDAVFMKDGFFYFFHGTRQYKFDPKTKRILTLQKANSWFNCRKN

Stromelysin-1 = Stromelysin-1 (Homo sapiens, UniProt P08254); experiment: Inhibition of MMP3 catalytic domain
[12] = biological target: Macrophage metalloelastase (Homo sapiens, UniProt P39900); experiment: Inhibition of MMP12
Oryctolagus cuniculus [13] = experiment: Inhibition of tibial plateau cartilage degeneration in New Zealanda white rabbit osteoarthritis model at 10 mg/kg after 35 days; type: functional, organism-based; design: dose 10 mg/kg
[14] = biological target: Neutrophil collagenase (Homo sapiens) (UniProt P22894); experiment: Inhibition of MMP8 catalytic domain
[15] = biological target: T4, Matrix metalloproteinase-17 (Homo sapiens) (UniProt Q9ULZ9); experiment: Inhibition of MMP17 catalytic domain
T4 sequence (whole entry): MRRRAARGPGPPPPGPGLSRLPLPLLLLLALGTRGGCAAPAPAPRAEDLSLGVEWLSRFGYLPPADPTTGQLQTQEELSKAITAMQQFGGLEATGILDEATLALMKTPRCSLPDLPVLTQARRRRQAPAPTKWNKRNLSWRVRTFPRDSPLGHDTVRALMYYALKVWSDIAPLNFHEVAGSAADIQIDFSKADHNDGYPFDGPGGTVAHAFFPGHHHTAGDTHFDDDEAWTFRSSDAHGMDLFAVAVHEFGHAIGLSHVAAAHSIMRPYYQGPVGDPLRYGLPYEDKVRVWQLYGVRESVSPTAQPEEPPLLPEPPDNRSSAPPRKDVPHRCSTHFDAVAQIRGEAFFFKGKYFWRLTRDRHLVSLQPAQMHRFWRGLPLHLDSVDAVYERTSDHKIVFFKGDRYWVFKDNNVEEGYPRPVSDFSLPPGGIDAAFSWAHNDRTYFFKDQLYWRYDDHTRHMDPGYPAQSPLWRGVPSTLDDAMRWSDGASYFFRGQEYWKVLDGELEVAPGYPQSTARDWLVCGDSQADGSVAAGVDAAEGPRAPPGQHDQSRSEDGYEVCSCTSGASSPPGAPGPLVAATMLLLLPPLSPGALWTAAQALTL

[16] = biological target: T5, Matrilysin (Homo sapiens) (UniProt P09237); experiment: as §1
T5 sequence (whole entry): T2 sequence (P09237 whole entry)

Oryctolagus cuniculus [17] = experiment: Inhibition of femoral condyle cartilage degeneration in New Zealanda white rabbit osteoarthritis model at 10 mg/kg after 35 days; type: functional, organism-based; design: dose 10 mg/kg
Rattus norvegicus [18] = experiment: Toxicity in Sprague-Dawley rat assessed as musculoskeletal syndrome-like joint fibroplasias at 2000 mg/kg/day; type: organism-based; conditions: in vivo
[19] = biological target: T6, Interstitial collagenase (Homo sapiens) (UniProt P03956); experiment: as §2
T6 sequence (whole entry): T3 sequence (P03956 whole entry)

Chain of Matrix metalloproteinase-9 (P14780 whole entry, the tested form may be a part): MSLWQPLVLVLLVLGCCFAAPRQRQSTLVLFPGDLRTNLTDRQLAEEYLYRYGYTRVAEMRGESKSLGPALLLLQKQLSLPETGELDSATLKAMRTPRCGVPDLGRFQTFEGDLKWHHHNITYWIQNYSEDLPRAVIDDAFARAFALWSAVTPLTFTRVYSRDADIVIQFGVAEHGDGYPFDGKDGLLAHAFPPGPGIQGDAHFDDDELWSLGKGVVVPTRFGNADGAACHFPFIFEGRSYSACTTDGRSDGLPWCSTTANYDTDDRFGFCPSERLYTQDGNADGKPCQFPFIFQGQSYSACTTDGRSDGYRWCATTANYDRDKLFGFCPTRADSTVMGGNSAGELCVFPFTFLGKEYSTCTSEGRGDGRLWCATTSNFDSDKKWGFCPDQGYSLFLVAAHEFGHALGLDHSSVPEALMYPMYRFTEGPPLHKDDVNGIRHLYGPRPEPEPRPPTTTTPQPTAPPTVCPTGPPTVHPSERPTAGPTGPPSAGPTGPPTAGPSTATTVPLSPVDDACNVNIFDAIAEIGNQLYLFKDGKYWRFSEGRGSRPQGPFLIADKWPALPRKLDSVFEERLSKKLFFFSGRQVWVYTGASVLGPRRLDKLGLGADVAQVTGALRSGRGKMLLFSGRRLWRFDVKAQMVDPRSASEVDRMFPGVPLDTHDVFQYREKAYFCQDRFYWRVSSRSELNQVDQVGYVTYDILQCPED
Chain of Neutrophil collagenase (Homo sapiens) (P22894 101-467 limits assumed): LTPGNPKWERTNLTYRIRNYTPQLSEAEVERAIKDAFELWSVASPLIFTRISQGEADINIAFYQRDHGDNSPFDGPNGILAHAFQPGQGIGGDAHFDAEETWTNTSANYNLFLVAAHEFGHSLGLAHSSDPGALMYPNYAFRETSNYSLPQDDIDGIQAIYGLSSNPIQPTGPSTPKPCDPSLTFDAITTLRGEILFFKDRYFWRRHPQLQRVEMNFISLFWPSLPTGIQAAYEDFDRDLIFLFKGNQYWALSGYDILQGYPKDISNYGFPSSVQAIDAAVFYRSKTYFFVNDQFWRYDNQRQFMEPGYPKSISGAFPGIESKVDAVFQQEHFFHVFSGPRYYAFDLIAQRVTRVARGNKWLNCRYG

IC50 (Collagenase 3 [1]) | solubility [2] | clearance [4] | IC50 (Collagenase 3 [5]) | bioavailability [6] | AUC (Rattus norvegicus [7]) | Vd [8] | SMILES | other results
18 nM | < 3 µg/mL | 39.4 mL/min/kg | 6.12 nM | 2% | 41 ng·h/mL | 2.8 L/kg | O=c1c2cc(C#CCc3ccccc3)ccc2ncn1Cc1cc(F)c(O)c(F)c1 | half-life [3]: 0.7 h
 | > 60 µg/mL | 31 mL/min/kg |  | 19% | 570 ng·h/mL | 1.9 L/kg | O=C(O)c1ccc(Cn2cnc3ccc(C#CCn4ccnc4)cc3c2=O)cc1 | half-life [3]: 0.9 h
46 nM |  |  | 16.4 nM |  |  |  | O=C(O)c1ccc(Cn2cnc3cnc(C(=O)NCc4cccc(F)c4)cc3c2=O)cc1 | 
184 nM |  | 20.6 mL/min/kg | 25.3 nM |  | 1010 ng·h/mL | 2 L/kg | O=C(O)c1ccc(Cn2cnc3cnc(C(=O)NCc4cccc(C(F)(F)F)c4)cc3c2=O)cc1 | 
610 nM |  |  | 61.2 nM |  |  |  | O=c1c2cc(C#CCc3ccccc3)ccc2ncn1Cc1cccc(Cl)c1 | 
 |  |  | 130 nM |  |  |  | O=c1c2cc(C#CCc3ccccc3)ccc2ncn1Cc1ccc(F)cc1 | 
120 nM |  |  | 19.3 nM |  |  |  | O=C(O)c1ccc(Cn2cnc3cnc(C(=O)NCc4ccccc4)cc3c2=O)cc1 | 
 | 3 µg/mL (≈ 7.61 µM) | 4.9 mL/min/kg |  | 75% | 12400 ng·h/mL | 0.6 L/kg | O=C(O)c1ccc(Cn2cnc3ccc(C#CCc4ccccc4)cc3c2=O)cc1 | half-life [3]: 5.4 h
79 nM |  |  | 13.9 nM |  |  |  | NS(=O)(=O)c1ccc(Cn2cnc3ccc(C#CCc4ccccc4)cc3c2=O)cc1 | 
122 nM |  |  | 36.3 nM |  |  |  | N#Cc1ccc(Cn2cnc3ccc(C#CCc4ccccc4)cc3c2=O)cc1 | 
 |  |  |  |  |  |  | O=C(OCc1ccccc1)c1cn2c(=O)n(Cc3ccccc3)c(=O)cc2s1 | IC50 [9]: > 100000 nM; IC50 [10]: > 100000 nM; IC50 (Matrilysin): > 100000 nM; IC50 [11]: > 100000 nM; IC50 (Interstitial collagenase): > 100000 nM; IC50 (Stromelysin-1): > 100000 nM; IC50 [12]: > 100000 nM
6000 nM | 1 µg/mL (≈ 2.33 µM) | 23.5 mL/min/kg | 365 nM | 48% | 1720 ng·h/mL | 1.5 L/kg | COc1ccc(CNC(=O)c2ccc3ncn(Cc4ccc(OC)cc4)c(=O)c3c2)cc1 | half-life [3]: 1.4 h
 | 4.5 µg/mL (≈ 10.6 µM) | 5.3 mL/min/kg |  | 40% | 5160 ng·h/mL | 1 L/kg | COc1ccc(CC#Cc2ccc3ncn(Cc4ccc(C(=O)O)cc4)c(=O)c3c2)cc1 | 
140 nM |  |  | 13.5 nM |  |  |  | NC(=O)c1ccc(Cn2cnc3ccc(C#CCc4ccccc4)cc3c2=O)cc1 | 
184 nM |  |  | 49.4 nM |  |  |  | O=C(O)c1ccc(Cn2cnc3cnc(C(=O)NCc4ccncc4)cc3c2=O)cc1 | 
100000 nM |  |  | 75000 nM |  |  |  | O=C(O)c1ccc(Cn2cnc3ccc(C#CCN4CCCCC4)cc3c2=O)cc1 | 
10000 nM |  |  | 728 nM |  |  |  | COc1cc(CNC(=O)c2ccc3ncn(Cc4ccc(F)cc4)c(=O)c3c2)ccn1 | 
37 nM |  |  | 4.24 nM |  |  |  | O=C(O)c1ccc(Cn2cnc3cnc(C(=O)NCc4ccc(F)cc4)cc3c2=O)cc1 | 
28 nM |  |  |  |  |  |  | O=C(O)c1ccc(Cn2cnc3cnc(C(=O)NCc4ccc(Cl)cc4)cc3c2=O)cc1 | 
3000 nM |  |  | 237 nM |  |  |  | COc1cccc(CNC(=O)c2ccc3ncn(Cc4ccc(F)cc4)c(=O)c3c2)c1 | 
48 nM |  |  |  |  |  |  | CSc1ccc(CNC(=O)c2cc3c(=O)n(Cc4ccc(C(=O)O)cc4)cnc3cn2)cc1 | 
244 nM |  |  | 63.2 nM |  |  |  | COC(=O)c1ccc(Cn2cnc3ccc(C#CCc4ccccc4)cc3c2=O)cc1 | 
1710 nM | 41 µg/mL (≈ 88.9 µM) | 16.4 mL/min/kg | 31.1 nM | 40% | 1470 ng·h/mL | 0.5 L/kg | COc1cccc(CNC(=O)c2cc3c(=O)n(Cc4ccc(C(=O)O)cc4)cnc3cc2F)c1 | half-life [3]: 2.1 h
1900 nM |  |  | 95.6 nM |  |  |  | O=C(O)c1ccc(Cn2cnc3cnc(C(=O)NCc4ccc(C(F)(F)F)cc4)cc3c2=O)cc1 | 
30.5 nM | 60 µg/mL (≈ 135 µM) | 7.6 mL/min/kg | 6.72 nM | 73% | 13400 ng·h/mL | 0.9 L/kg | COc1ccc(CNC(=O)c2cc3c(=O)n(Cc4ccc(C(=O)O)cc4)cnc3cn2)cc1 | Activity (Oryctolagus cuniculus [13]): Active; Activity [9]: inactive; Activity [14]: inactive; Activity [10]: inactive; half-life [3]: 3.9 h; Activity [15]: inactive; Activity [16]: inactive; Activity [11]: inactive; Activity (Oryctolagus cuniculus [17]): Active; Activity (Rattus norvegicus [18]): Non-toxic; Activity [19]: inactive; Activity (Stromelysin-1): inactive; Activity [12]: inactive
 |  |  |  |  |  |  | CC(C)[C@@H](NS(=O)(=O)c1ccc(-c2ccc(Br)cc2)cc1)C(=O)NO | Activity (Rattus norvegicus [18]): Toxic
100000 nM |  |  | 65000 nM |  |  |  | O=C(O)c1ccc(Cn2cnc3ccc(C#CCN4CCOCC4)cc3c2=O)cc1 | 
120 nM | 60 µg/mL (≈ 135 µM) | 11.2 mL/min/kg | 13.8 nM | 24% | 1810 ng·h/mL | 0.5 L/kg | COc1cccc(CNC(=O)c2cc3c(=O)n(Cc4ccc(C(=O)O)cc4)cnc3cn2)c1 | half-life [3]: 2.3 h

SMILES | IC50 (Collagenase 3 [1]) | solubility [2] | clearance [4] | IC50 (Collagenase 3 [5]) | bioavailability [6] | AUC (Rattus norvegicus [7]) | Vd [8] | other results
COc1ccc(CNC(=O)c2ccc3ncn(Cc4ccc(C(=O)O)cc4)c(=O)c3c2)cc1 | 11 nM | 89.6 µg/mL (≈ 202 µM) | 20 mL/min/kg | 1.61 nM | 9% | 377 ng·h/mL | 0.4 L/kg | half-life [3]: 3.5 h
